SMILES strings stand for the structures. pIC50: −log10 of the molar value.

Test [1] deals with T1, human TYK2 (Homo sapiens, UniProt P29597).
T1 construct: catalytic domain (amino acids 871-1187; catalog number 08-147); purchased Carna Biosciences 08-147
T1 sequence (P29597 871-1187): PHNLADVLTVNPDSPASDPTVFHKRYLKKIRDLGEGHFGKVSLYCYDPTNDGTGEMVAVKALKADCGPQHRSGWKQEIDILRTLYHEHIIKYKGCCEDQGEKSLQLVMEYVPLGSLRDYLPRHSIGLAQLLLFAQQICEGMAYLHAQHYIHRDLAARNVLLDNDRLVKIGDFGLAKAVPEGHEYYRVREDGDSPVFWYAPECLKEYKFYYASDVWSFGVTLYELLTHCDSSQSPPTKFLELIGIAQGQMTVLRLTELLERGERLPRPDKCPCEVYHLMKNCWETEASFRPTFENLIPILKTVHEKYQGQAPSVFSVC
In words: TYK2 inhibition assay. The note with it: recombinant human TYK2 catalytic domain, polyGT substrate. In kind it is biochemical. The method, boiled down:
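Radiometric kinase reaction run 90 min at 30 °C, stopped with phosphoric acid, washed and scintillation-counted.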

The target in test [2] is T2, human JAK2 (Homo sapiens, UniProt O60674).
T2 construct: catalytic domain (amino acids 808-1132; catalog number PV4210); GST; purchased Invitrogen PV4210
The experiment in a line: JAK2 inhibition assay (polyGT substrate / Ulight-JAK1 peptide). The class given is biochemical. The note with it: recombinant human JAK2 catalytic domain; polyGT or Ulight-JAK1 peptide assay. The method, boiled down: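 Radiometric: 0.025 mU JAK2 with 2.5 μg polyGT, 1 μM ATP plus ^33P-ATP in MOPS pH 7.5 buffer, 1% DMSO, 90 min at 30° C.; filter counting. Alternative TR-FRET format with Ulight-JAK1 peptide, 60 min at room temperature, Eu-anti-phosphotyrosine detection.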

The test system of test [3] is CTLL-2 cell line. In words: CTLL2 viability assay. The class given is cell-based. As to conditions: Mus musculus, IL-2 dependent CTLL2 viability, 24 h, ATP-lite. The source says: The protocol describes the methods to analyse the activity of compounds on their ability to sustain the IL2-dependent viability of CTLL2.
Final DMSO concentration was 0.1%.

T2 sequence (O60674 808-1132): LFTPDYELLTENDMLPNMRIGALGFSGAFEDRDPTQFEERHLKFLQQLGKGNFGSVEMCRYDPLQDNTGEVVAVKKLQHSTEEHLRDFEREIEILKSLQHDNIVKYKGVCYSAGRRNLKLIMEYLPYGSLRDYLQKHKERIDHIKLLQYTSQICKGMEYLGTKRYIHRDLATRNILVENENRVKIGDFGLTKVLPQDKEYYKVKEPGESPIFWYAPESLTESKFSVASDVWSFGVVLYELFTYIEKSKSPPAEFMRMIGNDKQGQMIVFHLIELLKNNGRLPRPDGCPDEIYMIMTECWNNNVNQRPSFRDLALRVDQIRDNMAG

For `CCc1cc(C(=O)NCc2ccccc2)ccc1N(C)c1cc2c(cn1)ncn2C` [Compound 98, N-benzyl-3-ethyl-4-(methyl(1-methyl-1H-imidazo[4,5-c]pyridin-6-yl)amino)benzamide], the pIC50 in test [1] and in test [2] was 6.00 to 6.30 each time.

Turning to `CCNC(=O)c1ccc(N(C)c2cc3c(cn2)ncn3C)c(CC)c1` [Compound 102, N,3-diethyl-4-(methyl(1-methyl-1H-imidazo[4,5-c]pyridin-6-yl)amino)benzamide], the pIC50 in test [1] is 6.30 to 7.00; in test [2], less than 6.00.

With `CCc1cc(C(C)(C)O)ccc1N(C)c1cc2c(cn1)ncn2C` [Compound 103, 2-(3-Ethyl-4-(methyl(1-methyl-1H-imidazo[4,5-c]pyridin-6-yl)amino)phenyl)propan-2-ol], the values for the pIC50 in test [1] and in test [2] were 7.00 to 11.00 and 6.30 to 7.00, respectively.

Turning to `CCc1cc(COC)ccc1N(C)c1cc2c(cn1)ncn2C` [Compound 105, N-(2-Ethyl-4-(methoxymethyl)phenyl)-N,1-dimethyl-1H-imidazo[4,5-c]pyridin-6-amine], the pIC50 was 7.00 to 11.00 in test [1] and 6.30 to 7.00 in test [2].

Turning to `CCc1cc(O)ccc1N(C)c1cc2c(cn1)ncn2C` [Compound 107, 3-ethyl-4-(methyl(1-methyl-1H-imidazo[4,5-c]pyridin-6-yl)amino)phenol], the pIC50 in test [1] and in test [2] was 7.00 to 11.00 throughout.

As to `CCc1cc(OC2CCN(S(C)(=O)=O)C2)ccc1N(C)c1cc2c(cn1)ncn2C` (stereo not shown) [Compound 110, N-(2-Ethyl-4-((1-(methylsulfonyl)pyrrolidin-3-yl)oxy)phenyl)-N,1-dimethyl-1H-imidazo[4,5-c]pyridin-6-amine], the pIC50 in test [1] is 7.00 to 11.00; in test [2] it was 6.30 to 7.00.

With `CCc1cc(Cn2ccnc2)ccc1N(C)c1cc2c(cn1)ncn2C` [Compound 111, N-(4-((1H-imidazol-1-yl)methyl)-2-ethylphenyl)-N,1-dimethyl-1H-imidazo[4,5-c]pyridin-6-amine], the pIC50 in test [1] and in test [2] was 6.30 to 7.00 in each case.

Consider `CCc1cc(-c2ccc(C#N)nc2)ccc1N(C)c1cc2c(cn1)ncn2C` [Compound 114, 5-(3-ethyl-4-(methyl(1-methyl-1H-imidazo[4,5-c]pyridin-6-yl)amino)phenyl)picolino-nitrile], for which the pIC50 was 7.00 to 11.00 in test [1] and 6.30 to 7.00 in test [2].

`CCc1cc(C(=O)NCCN(C)C)ccc1N(C)c1cc2c(cn1)ncn2C` [Compound 119, N-(2-(dimethylamino)ethyl)-3-ethyl-4-(methyl(1-methyl-1H-imidazo[4,5-c]pyridin-6-yl)amino)benzamide]: the pIC50 in test [1] and in test [2] was less than 6.00 throughout.

For `CCc1cc(C(=O)NCC#N)ccc1N(C)c1cc2c(cn1)ncn2C` [Compound 120, N-(cyanomethyl)-3-ethyl-4-(methyl(1-methyl-1H-imidazo[4,5-c]pyridin-6-yl)amino)benzamide], the pIC50 in test [1] and in test [2] was 6.30 to 7.00 throughout.

As for `CCc1ccc(C(=O)NC(C)(C)C)cc1N(C)c1cc2c(cn1)ncn2C` [Compound 123, N-tert-butyl-4-ethyl-3-(methyl(1-methyl-1H-imidazo[4,5-c]pyridin-6-yl)amino)benzamide], the pIC50 in test [1] and in test [2] was less than 6.00 each time.

As for `CCc1cc(-c2ccsc2)ccc1N(C)c1cc2c(cn1)ncn2C` [Compound 127, N-(2-ethyl-4-(thiophen-3-yl)phenyl)-N,1-dimethyl-1H-imidazo[4,5-c]pyridin-6-amine], the values for the pIC50 in test [1] and in test [2] were 7.00 to 11.00 and 6.30 to 7.00, respectively.

On to `CCc1cc(-c2ccc(CNC(=O)OC(C)(C)C)s2)ncc1N(C)c1cc2c(cn1)ncn2C` [Compound 302], for which the pIC50 in test [1] and in test [2] was 6.30 to 7.00 throughout.

Take `CCc1cc(-c2ccc(CN)s2)ncc1N(C)c1cc2c(cn1)ncn2C` [Compound 303, [6-(5-Aminomethyl-thiophen-2-yl)-4-ethyl-pyridin-3-yl]-methyl-(1-methyl-1H-imidazo[4,5-c]pyridin-6-yl)-amine]: the pIC50 in test [1] and in test [2] was less than 6.00 each time.

As to `CCc1cc(-c2ccc(Cl)s2)ncc1N(C)c1cc2c(cn1)ncn2C` [Compound 304, [6-(5-Chloro-thiophen-2-yl)-4-ethyl-pyridin-3-yl]-methyl-(1-methyl-1H-imidazo[4,5-c]pyridin-6-yl)-amine], the negative-log IC50 (pIC50) in test [1] and in test [2] was 7.00 to 11.00 throughout.

Consider `CCc1cc(-c2ccc(C)s2)ncc1N(C)c1cc2c(cn1)ncn2C` [Compound 311, [4-Ethyl-6-(5-methyl-thiophen-2-yl)-pyridin-3-yl]-methyl-(1-methyl-1H-imidazo[4,5-c]pyridin-6-yl)-amine], for which the pIC50 in test [1] and in test [2] was 7.00 to 11.00 each time.

As to `COc1cc(-c2c(C)nn(C)c2C)ncc1N(C)c1cc2c(cn1)ncn2C` [Compound 312], the pIC50 in test [1] and in test [2] was less than 6.00 in each case.

Turning to `COc1cc(N2CCOCC2)ncc1N(C)c1cc2c(cn1)ncn2C` [Compound 313, (4-Methoxy-6-morpholin-4-yl-pyridin-3-yl)-methyl-(1-methyl-1H-imidazo[4,5-c]pyridine-6-yl)-amine], the pIC50 in test [1] and in test [2] was 6.30 to 7.00 in each case.

As to `COc1ccc(S(=O)(=O)N2CCCCC2)cc1N(C)c1cc2c(cn1)ncn2C` [Compound 314, [2-Methoxy-5-(piperidine-1-sulfonyl)-phenyl]-methyl-(1-methyl-1H-imidazo[4,5-d]pyridin-6-yl)-amine], the pIC50 in test [1] and in test [2] was less than 6.00 each time.

Turning to `COc1cc(S(=O)(=O)N2CCOCC2)ccc1N(C)c1cc2c(cn1)ncn2C` [Compound 315, [2-Methoxy-4-(morpholine-4-sulfonyl)-phenyl]-methyl-(1-methyl-1H-imidazo[4,5-d]pyridin-6-yl)-amine], the pIC50 in test [1] and in test [2] was less than 6.00 in each case.

With `CCc1cn(CCC#N)nc1N(C)c1cc2c(cn1)ncn2C` [Compound 316, 3-{4-Ethyl-3-[methyl-(1-methyl-1H-imidazo[4,5-c]pyridin-6-yl)-amino]-pyrazol-1-yl}-propionitrile], the pIC50 in test [1] and in test [2] was less than 6.00 each time.

In the case of `CN(c1cc2c(cn1)ncn2C)c1ccc(CNC(=O)C(F)F)cc1F` [Compound 320], the pIC50 in test [1] was 6.30 to 7.00; in test [2] it was 7.00 to 11.00.

With `CCc1cc(C#N)cc(F)c1N(C)c1cc2c(cn1)ncn2C` [Compound 322, 3-Ethyl-5-fluoro-4-[methyl-(1-methyl-M-imidazo[4,5-c]pyridin-6-yl)-amino]-benzonitrile], the pIC50 in test [1] and in test [2] was 6.30 to 7.00 throughout.

Regarding `CCc1cc(CNS(=O)(=O)C(F)F)cc(F)c1N(C)c1cc2c(cn1)ncn2C` [Compound 324, N-{3-Ethyl-5-fluoro-4-[methyl-(1-methyl-1H-imidazo[4,5-c]pyridin-6-yl)-amino]-benzyl}-C,C-difluoro-methanesulfonamide], the pIC50 in test [1] and in test [2] was 7.00 to 11.00 throughout.

In the case of `CCc1cc(CNC(=O)C(F)F)c(F)cc1N(C)c1cc2c(cn1)ncn2C` [Compound 326, N-{5-Ethyl-2-fluoro-4-[methyl-(1-methyl-M-imidazo[4,5-c]pyridin-6-yl)-amino]-benzyl}-2,2-difluoro-acetamide], the figures for the pIC50 in test [1] and in test [2] were 6.30 to 7.00 and 7.00 to 11.00, respectively.

As to `CCc1cc(C2CN(S(=O)(=O)C(C)C)C2)ncc1N(C)c1cc2c(cn1)ncn2C` [Compound 330, {4-Ethyl-6-[1-(propane-2-sulfonyl)-azetidin-3-yl]-pyridin-3-yl}-methyl-(1-methyl-1H-imidazo[4,5-c]pyridin-6-yl)-amine], the negative logarithm of the IC50 (pIC50) was less than 6.00 in test [1] and 6.30 to 7.00 in test [2].

Turning to `CCc1cc(C2CN(CC#N)C2)ncc1N(C)c1cc2c(cn1)ncn2C` [Compound 331, (3-{4-Ethyl-5-[methyl-(1-methyl-1H-imidazo[4,5-c]pyridin-6-yl)-amino]-pyridin-2-yl}-azetidin-1-yl)-acetonitrile], the values for the pIC50 in test [1] and in test [2] were 6.00 to 6.30 and 6.30 to 7.00, respectively.

Consider `CCc1cc(C2CN(C(C)=O)C2)ncc1N(C)c1cc2c(cn1)ncn2C` [Compound 332, 1-(3-{4-Ethyl-5-[methyl-(1-methyl-1H-imidazo[4,5-c]pyridin-6-yl)-amino]-pyridin-2-yl}-azetidin-1-yl)-ethanone], for which the pIC50 is less than 6.00 in test [1] and 6.00 to 6.30 in test [2].

In the case of `CCc1cc(CNS(=O)(=O)C(F)F)ncc1N(C)c1cc2c(cn1)ncn2C` [Compound 343, N-{4-Ethyl-5-[methyl-(1-methyl-1H-imidazo[4,5-c]pyridin-6-yl)-amino]-pyridin-2-ylmethyl}-C,C-difluoro-methane sulfonamide], the pIC50 in test [1] was 6.00 to 6.30; in test [2], 6.30 to 7.00; in test [3], less than 6.00.

Take `CCc1ccccc1N(CC(F)F)c1cc2c(cn1)ncn2C` [Compound 463, N-(2,2-difluoroethyl)-N-(2-ethylphenyl)-1-methyl-1H-imidazo[4,5-c]pyridin-6-amine]: the pIC50 is 7.00 to 11.00 in test [1] and 6.30 to 7.00 in test [2].

One may read the pIC50 as the negative decadic logarithm of the IC50, by convention in mol/L.

The record behind these values is patent US20130217664A1, “NOVEL COMPOUNDS USEFUL FOR THE TREATMENT OF DEGENERATIVE AND INFLAMMATORY DISEASES” (priority 2012, published 2013).
